According to patent US20100056524A1, “Compound” (priority 2008, published 2010):
Where a name gives a salt, the structure may show the parent alone.

Target: T1, TBK1 (Homo sapiens, UniProt Q9UHD2)
T1 construct: All protein kinases were of human origin and encoded full length proteins, unless indicated otherwise; His6; made in house; host or cells: insect Sf21 cells
T1 sequence (Q9UHD2 1-729): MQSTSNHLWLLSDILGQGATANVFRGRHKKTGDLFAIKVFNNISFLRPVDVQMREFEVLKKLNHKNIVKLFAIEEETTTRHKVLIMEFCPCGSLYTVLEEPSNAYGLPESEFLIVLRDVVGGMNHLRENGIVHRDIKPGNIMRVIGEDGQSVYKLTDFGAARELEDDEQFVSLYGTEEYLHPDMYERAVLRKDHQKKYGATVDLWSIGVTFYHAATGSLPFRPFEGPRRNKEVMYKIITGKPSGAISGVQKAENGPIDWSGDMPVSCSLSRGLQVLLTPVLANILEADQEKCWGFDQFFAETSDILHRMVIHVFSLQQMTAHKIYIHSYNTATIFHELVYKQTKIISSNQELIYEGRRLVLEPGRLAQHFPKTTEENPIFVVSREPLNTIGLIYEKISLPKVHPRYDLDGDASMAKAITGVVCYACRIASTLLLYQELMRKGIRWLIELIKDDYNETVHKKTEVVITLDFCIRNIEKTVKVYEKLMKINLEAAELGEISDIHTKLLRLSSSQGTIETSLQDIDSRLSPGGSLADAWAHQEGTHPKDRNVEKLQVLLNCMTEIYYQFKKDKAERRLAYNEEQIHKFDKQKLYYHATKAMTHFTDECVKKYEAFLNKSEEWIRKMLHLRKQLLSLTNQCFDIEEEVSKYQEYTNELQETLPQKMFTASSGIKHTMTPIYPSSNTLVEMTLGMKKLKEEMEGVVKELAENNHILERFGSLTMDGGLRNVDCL
Assay: TBK1 protein kinase assay ([γ-33P]ATP, P81 filterplates)
Type: biochemical
Conditions: 50 μM ATP; read-out: Potency (TBK1 IC50 potency score)
Summary of the method: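 Human TBK1 assayed for 30 min with peptide substrate (300 μM), 50 μM [γ-33P]ATP and 10 mM magnesium acetate in 50 mM Tris/HCl pH 7.5, 0.1 mM EGTA, 0.1% 2-mercaptoethanol. Stopped with orthophosphoric acid and counted on P81 filters. IC50 from 10 compound concentrations.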

SMILES | IC50 [nM]
O=C(NCCCNc1nc(Nc2cccc(CN3CCC(F)(F)CC3)c2)ncc1C1CC1)C1CCC1 [Example 135, Cyclobutanecarboxylic acid (3-{5-cyclopropyl-2-[3-(4,4-difluoro-piperidin-1-ylmethyl)-phenylamino]-pyrimidin-4-ylamino}-propyl)-amide] | < 100
N#CCc1cccc(Nc2ncc(C3CC3)c(NCCCNC(=O)C3CCC3)n2)c1 [Example 136, Cyclobutanecarboxylic acid {3-[2-(3-cyanomethyl-phenylamino)-5-cyclopropyl-pyrimidin-4-ylamino]-propyl}-amide] | < 100
O=C(NCCCNc1nc(Nc2cccc(N3CCNC3=O)c2)ncc1C1CC1)C1CCC1 [Example 140, Cyclobutanecarboxylic acid (3-{5-cyclopropyl-2-[3-(2-oxo-imidazolidin-1-yl)-phenylamino]-pyrimidin-4-ylamino}-propyl)-amide] | < 100
O=C(NCCCNc1nc(Nc2cccc(Br)c2)ncc1C1CC1)C1CCC1 [Example 141, Cyclobutanecarboxylic acid {3-[2-(3-bromo-phenylamino)-5-cyclopropyl-pyrimidin-4-ylamino]-propyl}-amide] | < 100
O=C(NCCCNc1nc(Nc2cccc(OCCN3CCOCC3)c2)ncc1C1CC1)C1CCC1 [Example 143, Cyclobutanecarboxylic acid (3-{5-cyclopropyl-2-[3-(2-morpholin-4-yl-ethoxy)-phenylamino]-pyrimidin-4-ylamino}-propyl)-amide] | < 100
CN(C)[C@H]1CCN(Cc2ccc(Nc3ncc(C4CC4)c(NCCCNC(=O)C4CCC4)n3)cn2)C1 [Example 146, Cyclobutanecarboxylic acid (3-{5-cyclopropyl-2-[6-((S)-3-dimethylamino-pyrrolidin-1-ylmethyl)-pyridin-3-ylamino]-pyrimidin-4-ylamino}-propyl)-amide] | < 100
CN1CCN(Cc2ccc(Nc3ncc(C4CC4)c(NCCCNC(=O)C4CCC4)n3)cn2)CC1 [Example 147, Cyclobutanecarboxylic acid (3-{5-cyclopropyl-2-[6-(4-methyl-piperazin-1-ylmethyl)-pyridin-3-ylamino]-pyrimidin-4-ylamino}-propyl)-amide] | < 100
O=C(NCCCNc1nc(Nc2ccc(CN3CCC(F)(F)CC3)nc2)ncc1C1CC1)C1CCC1 [Example 148, Cyclobutanecarboxylic acid (3-{5-cyclopropyl-2-[6-(4,4-difluoro-piperidin-1-ylmethyl)-pyridin-3-ylamino]-pyrimidin-4-ylamino}-propyl)-amide] | < 100
O=C(NCCCNc1nc(Nc2ccc(N3CCCCC3)nc2)ncc1C1CC1)C1CCC1 [Example 150, Cyclobutanecarboxylic acid {3-[5-cyclopropyl-2-(3,4,5,6-tetrahydro-2H-[1,2′]bipyridinyl-5′-ylamino)-pyrimidin-4-ylamino]-propyl}-amide] | < 100
O=C(NCCCNc1nc(Nc2ccc(N3CCCC3)nc2)ncc1C1CC1)C1CCC1 [Example 151, Cyclobutanecarboxylic acid {3-[5-cyclopropyl-2-(6-pyrrolidin-1-yl-pyridin-3-ylamino)-pyrimidin-4-ylamino]-propyl}-amide] | < 100
O=C(NCCCNc1nc(Nc2cnc(N3CCOCC3)nc2)ncc1C1CC1)C1CCC1 [Example 152, Cyclobutanecarboxylic acid {3-[5-cyclopropyl-2-(2-morpholin-4-yl-pyrimidin-5-ylamino)-pyrimidin-4-ylamino]-propyl}-amide] | < 100
O=C(NCCCNc1nc(Nc2ccc(OCCN3CCOCC3)nc2)ncc1C1CC1)C1CCC1 [Example 154, Cyclobutanecarboxylic acid (3-{5-cyclopropyl-2-[6-(2-morpholin-4-yl-ethoxy)-pyridin-3-ylamino]-pyrimidin-4-ylamino}-propyl)-amide] | < 100
O=C(NCCCNc1nc(Nc2cnn(CCN3CCOCC3)c2)ncc1C1CC1)C1CCC1 [Example 155, Cyclobutanecarboxylic acid (3-{5-cyclopropyl-2-[1-(2-morpholin-4-yl-ethyl)-1H-pyrazol-4-ylamino]-pyrimidin-4-ylamino}-propyl)-amide] | < 100
O=C(NCCCNc1nc(Nc2ccc(CN3CCCCC3)nc2)ncc1C1CC1)C1CCC1 [Example 156, Cyclobutanecarboxylic acid {3-[5-cyclopropyl-2-(6-piperidin-1-ylmethyl-pyridin-3-ylamino)-pyrimidin-4-ylamino]-propyl}-amide] | < 100
O=C(NCCCNc1nc(Nc2ccc(CN3CCCC(F)(F)C3)nc2)ncc1C1CC1)C1CCC1 [Example 157, Cyclobutanecarboxylic acid (3-{5-cyclopropyl-2-[6-(3,3-difluoro-piperidin-1-ylmethyl)-pyridin-3-ylamino]-pyrimidin-4-ylamino}-propyl)-amide] | < 100
CN(C)[C@@H]1CCN(Cc2ccc(Nc3ncc(C4CC4)c(NCCCNC(=O)C4CCC4)n3)cn2)C1 [Example 159, Cyclobutanecarboxylic acid (3-{5-cyclopropyl-2-[6-((R)-3-dimethylamino-pyrrolidin-1-ylmethyl)-pyridin-3-ylamino]-pyrimidin-4-ylamino}-propyl)-amide] | < 100
O=C(NCCCNc1nc(Nc2cnn(CCN3CCCCC3)c2)ncc1C1CC1)C1CCC1 [Example 160, Cyclobutanecarboxylic acid (3-{5-cyclopropyl-2-[1-(2-piperidin-1-yl-ethyl)-1H-pyrazol-4-ylamino]-pyrimidin-4-ylamino}-propyl)-amide] | < 100
CC(C)n1cc(Nc2ncc(C3CC3)c(NCCCNC(=O)C3CCC3)n2)cn1 [Example 161, Cyclobutanecarboxylic acid {3-[5-cyclopropyl-2-(1-isopropyl-1H-pyrazol-4-ylamino)-pyrimidin-4-ylamino]-propyl}-amide] | < 100
O=C(C1CCC1)N1CC(CNc2nc(Nc3cccc(F)c3)ncc2C2CC2)C1 [Example 162, Cyclobutyl-(3-{[5-cyclopropyl-2-(3-fluoro-phenylamino)-pyrimidin-4-ylamino]-methyl}-azetidin-1-yl)-methanone] | 100 to 1000

Second part, the molecule after the results:

IC50 [nM] | SMILES
< 100 | Cn1ncc2cc(Nc3ncc(C4CC4)c(NCCCNC(=O)C4CCC4)n3)ccc21 [Example 137, Cyclobutanecarboxylic acid {3-[5-cyclopropyl-2-(1-methyl-1H-indazol-5-ylamino)-pyrimidin-4-ylamino]-propyl}-amide]
< 100 | Cn1cc2ccc(Nc3ncc(C4CC4)c(NCCCNC(=O)C4CCC4)n3)cc2n1 [Example 138, Cyclobutanecarboxylic acid {3-[5-cyclopropyl-2-(2-methyl-2H-indazol-6-ylamino)-pyrimidin-4-ylamino]-propyl}-amide]
< 100 | Cn1ncc2ccc(Nc3ncc(C4CC4)c(NCCCNC(=O)C4CCC4)n3)cc21 [Example 139, Cyclobutanecarboxylic acid {3-[5-cyclopropyl-2-(1-methyl-1H-indazol-6-ylamino)-pyrimidin-4-ylamino]-propyl}-amide]
< 100 | O=C(NCCCNc1nc(Nc2cccc(C(=O)N3CCNCC3)c2)ncc1C1CC1)C1CCC1 [Example 142, Cyclobutanecarboxylic acid (3-{5-cyclopropyl-2-[3-(piperazine-1-carbonyl)-phenylamino]-pyrimidin-4-ylamino}-propyl)-amide. Hydrochloride]
< 100 | O=C(NCCCNc1nc(Nc2cccc(NC(=O)N3CCCC3)c2)ncc1C1CC1)C1CCC1 [Example 144, Pyrrolidine-1-carboxylic acid (3-{4-[3-(cyclobutanecarbonyl-amino)-propylamino]-5-cyclopropyl-pyrimidin-2-ylamino}-phenyl)-amide]
< 100 | CC(C)(c1cccc(Nc2ncc(C3CC3)c(NCCCNC(=O)C3CCC3)n2)c1)N1CCOCC1 [Example 145, Cyclobutanecarboxylic acid (3-{5-cyclopropyl-2-[3-(1-methyl-1-morpholin-4-yl-ethyl)-phenylamino]-pyrimidin-4-ylamino}-propyl)-amide]
1000 to 10000 | O=C(NCCCNc1nc(Nc2cncnc2)ncc1C1CC1)C1CCC1 [Example 149, Cyclobutanecarboxylic acid {3-[5-cyclopropyl-2-(pyrimidin-5-ylamino)-pyrimidin-4-ylamino]-propyl}-amide]
< 100 | Cn1cc(Nc2ncc(C3CC3)c(NCCCNC(=O)C3CCC3)n2)cn1 [Example 153, Cyclobutanecarboxylic acid {3-[5-cyclopropyl-2-(1-methyl-1H-pyrazol-4-ylamino)-pyrimidin-4-ylamino]-propyl}-amide]
< 100 | O=C(NCCCNc1nc(Nc2ccc(NCCN3CCOCC3)nc2)ncc1C1CC1)C1CCC1 [Example 158, Cyclobutanecarboxylic acid (3-{5-cyclopropyl-2-[6-(2-morpholin-4-yl-ethylamino)-pyridin-3-ylamino]-pyrimidin-4-ylamino}-propyl)-amide]
